Experimental data reported in publication PMC9873809, “Identification of a human estrogen receptor α tetrapeptidic fragment with dual antiproliferative and anti-nociceptive action” (Scientific Reports, 2023).
“Also recorded” adds a separate entry of the source. Like-named read-outs stand apart in the source and are kept apart here. No end group written: not given here.

Key:
[1] = type: physicochemical; settings: for change of intensity of aliphatic proton signals (1H-NMR): 298 K, 65 h, 500 MHz
Description: ERα17p fibrilization was followed at 298 K by using a NMR spectrometer (Bruker AVANCE III 500 MHz) equipped with a triple resonance (^1H, ^15 N, ^13C) cryoprobe. Each sample (100 μM) was prepared extemporaneously in appropriate buffer at pH 3.4, 7.4 and 9.1. A 10:90 D2O:H2O mixture was added to the buffer to reach a final D2O percentage of 7.5%. The final volume was of 520 μL in a 5 mm tube. 1D proton experiments (eight scans) were carried out over 65 h, with a total of 258 spectra (1 spectrum each 15 min, 8 scan/spectrum). Spectra analysis was carried out with the Bruker Topspin software by focusing between 0.80 and 3.60 ppm aliphatic side-chains region.

[2] = cited from earlier work
From the text: Then, we have explored the biological effects of the peptide 2, not only on cell survival (in vitro study) but also in pain (in vivo study). […] Our approach consisting in designing a minimalist active ERα17p-derived peptide, the pharmacologically inert KRSKK motif was excluded from our study. […] Regarding phenotypes, a GPER-dependent ...

[3] = tested on: inflammation and pain; settings: cited from earlier work
[4] = tested on: xenografted triple negative breast tumors; settings: 1.5 mg/kg body weight, three times a week for four weeks, mice; cited from earlier work
[5] = ThT fluorescence kinetics of fibril/aggregate formation; type: physicochemical; settings: ThT 10 μM, mean of triplicate
Description: Fibrils were detected by measuring the fluorescence intensity of Thioflavin T (ThT)[53]. A plate reader (Fluostar Optima, BMG LabTech, Ortenberg, Germany) and standard 96-wells flat-bottom black microtiter plates (Costar 3792, Sigma Aldrich, Saint-Louis, USA) were used in combination with excitation and emission filters, at 440 and 485 nm, respectively (ThT concentration: 10 μM). Peptide concentrations varied from 10 to 100 μM, at pH 3.4 (0.2 M glycine HCl in water), pH 7.4 (0.2 M KH2PO4 in water, 0.2 M K2HPO4, in water) and pH 9.1 (0.2 M glycine NaOH in water). The microtiter plate was shaken prior to measurements. Fluorescence intensity (arbitrary units, u.a.) was recorded every 10 min, during 40 h. Resulting curves were analyzed by using GraphPad Prism. Data are the means of experiments performed in triplicate.

[6] = Transmission electron microscopy of aggregates; type: physicochemical
Description: Peptides were dissolved in appropriate buffer at pH 3.4, 7.4 and 9.1 to reach peptide stock solutions of 100 μM. Each peptide was incubated in an Eppendorf tube during 48 h. One drop (20 μL) of each peptide solution was adsorbed onto glow-discharged carbon coated 200 mesh copper grids. After 2 min, the grids were dried and negatively stained during 45 s with a 2.5% uranyl acetate solution. Grids were blotted, dried, and examined by using a Zeiss 912 Omega (Zeiss, Marly-le-Roi, France) […] or a JEOL 2100 HC (Croissy, France) […].

[7] = tested on: tactile hypersensitivity in the murine CFA model; assay: von Frey test in Complete Freund's Adjuvant (CFA) inflammatory pain model; type: in vivo, C57BL/6j mice; settings: for 50% paw withdrawal threshold (PWT): seven days after CFA, mean ± SEM, n = 8 mice
Description: Experiments were performed according to ethical guidelines established by the International Association for the Study of Pain (IASP) and the relevant European legislation (Directive 2010/63/EU). They were also approved by the Auvergne Animal Experiment Ethics Committee, CE2A and the French Ministry of Higher Education and Innovation. Eight-week-old male C57BL/6j mice were purchased from Janvier Laboratories (Le Genest-Saint-Isle, France), housed under standard laboratory conditions (12 h light/dark cycle, temperature of 21 to 22 °C, 55% humidity under specific pathogen free conditions) and acclimatized for a week before testing. Food and water were available ad libitum.
Design, analysis and reporting were carried out in accordance with the ARRIVE guidelines[56]–[58]. To ensure the methodological quality of the study, Rice et al. recommendations were followed. Animals were randomly divided into eight mice per group. To assess different treatment effects over the same time interval and to avoid, thereby, unverifiable and time-variable environmental influence, treatments were administered following the method of equal blocks. All experiments were performed in a quiet room by the same blinded experimenter. ERα17p and PLMI peptides were dissolved in a saline solution prior to intraperitoneal administration (10 mL/kg).
A persistent inflammatory pain model was produced by injection under brief anesthesia (2.5% isoflurane inhalation) of Complete Freund's Adjuvant (CFA, 10 µL) on the left ankle joint of mice[60]. CFA consisted of Mycobacterium butyricum (Difco Laboratories, Detroit, USA) dissolved in paraffin oil and saline (0.9% NaCl). The solution was autoclaved 20 min at 120 °C. Behavior tests were performed before and seven days after CFA injection.
On behavior testing day, the mice were placed individually in Plexiglas compartments (8 cm (L) × 3.5 cm (W) × 8 cm (D)) and on an elevated wire mesh platform to allow access to the ventral surface of the hindpaws, and were allowed to acclimatize for one hour before testing. Von Frey filaments (0.02 to 1.4 g) were applied perpendicularly to the plantar surface of the paw. Paw withdrawal and licking were considered as positive responses. 50% paw withdrawal threshold (PWT) was determined using an adaptation of the Dixon up–down method, as described previously.
All data were analyzed using the Prism 8 software (GraphPad™ Software Inc., San Diego, CA). Data were tested for normality (Shapiro–Wilk test) and equal variance (Fisher test). For kinetic data, multiple measurements were compared with repeated measures (two-way ANOVA). Post hoc comparisons were performed by the Tukey’s test. […] AUC was expressed as mean ± SEM (g × min). […]

[8] = tested on: GPER knockout (KO) MDA-MB-231 cells; assay: Cell growth by automated cell counting; type: cell-based, human; settings: GPER KO MDA-MB-231, 72 h, increasing concentrations, 2.5% charcoal-stripped FBS, three independent experiments in triplicate
Description: (§1) MCF-7 (ER + , PR + , […] , GPER +) and HS578T (ER-, PR-, Her2-, GPER +) cells were cultured in RPMI-1640 and DMEM medium (Life Technologies, Courtaboeuf, France), respectively, supplemented with 10% (v/v) fetal bovine serum (FBS), 100 U/mL penicillin and 100 µg/mL streptomycin. MDA-MB-231 triple negative breast cancer cells were obtained from the ATCC (Manassas, VA, USA). Cells were maintained in DMEM/F12 (Dulbecco’s modified Eagle’s medium) with phenol red, supplemented with 5% fetal bovine serum (FBS) and 1% penicillin/streptomycin (Thermo Fisher Scientific, Monza, Italy). Cells were grown in a 37 °C incubator with 5% CO2.
(§2) Short guide RNA (sgRNA) sequence targeting human GPER was designed using the E-CRISP sgRNA Designer (http://www.e-crisp.org/E-CRISP/) and was cloned into the pSpCas9 (BB)-2A-Puro (PX459) plasmid, as previously described. The GPER sgRNA sequence used to generate the GPER knockout is as followed: sgGPER: 5′-[…]-3′. Next, the vector with sgRNA was transiently transfected into MDA-MB-231 cells using Lipofectamine LTX (Life Technologies, Milan Italy). […]
(§3) MDA-MB-231 WT and GPER KO cells were seeded in 24-well plates in regular growth medium. […] Cells were counted on day 4 using an automated cell counter (Life Technologies, Milan, Italy), following the manufacturer’s recommendations.

[9] = tested on: GPER (WT) MDA-MB-231 cells; assay: Cell growth by automated cell counting; type: cell-based, human; settings: WT MDA-MB-231, 72 h, increasing concentrations, 2.5% charcoal-stripped FBS, three independent experiments in triplicate
Description: as §1, §2, §3

[10] = target: GPER; settings: binding within the ligand-binding site of GPER; cited from earlier work
Description: In physiological conditions (complete serum) and at the concentration of 10 μM, ERα17p triggers membrane-initiated pro-apoptotic events, in both ERα-positive and -negative breast cancer cell lines with, however, a preference for ERα-positive cancer cells. It decreases the ratio Bcl-xl/Bax, increases cleaved caspase-9 and induces a redistribution of actin through a mechanism requiring PI3K, ROCK and p38 MAPK, depending on cell line[21],[22]. Moreover, ERα17p induces a proteasome-dependent decrease of the levels of the G protein-coupled estrogen receptor (GPER), of activated EGFR and ERK1/2 ...

[11] = Circular dichroism of the soluble peptide pool over time; type: physicochemical; settings: pH 9.1, peptide 100 μM, 25 °C, between 5 and 22 h
Description: CD spectra were recorded on a Jasco J-815 apparatus (Lisses, France) using quartz cells (0.1 cm path length, Hellma GmbH, Müllheim, Germany). Each peptide was dissolved (final concentration: 100 μM) in appropriate buffer solution, at pH 9.1. After an equilibration period of 5 min at 25 °C, CD spectra were recorded over the 190 to 260 nm wavelength range. Measurements were carried out at 1 nm intervals. Data points were acquired every 0.5 nm in continuous scanning mode (speed = 20 nm.min^−1, bandwidth = 1 nm). CD spectra were recorded after 0, 5, 22 and 28 h (unit: mean residue ellipticity [θ]MRE, in deg.cm^2.dmol^−1). Acquisitions were carried out using the software Spectra Manager. Recorded data (mean of five scans) were treated with GraphPad Prism. Buffer background was subtracted to avoid buffer and cell contributions.

[12] = Solubility as observed when preparing biological assays; settings: culture media; reason for exclusion from biological assays
[13] = pH 9.1 (glycine NaOH 0.2 M in water), peptide 100 μM, 48 h incubation

For PLMIKRSKKNSLALSLT [ERα17p], the “change of intensity of aliphatic proton signals (1H-NMR)” value ([1]; pH 3.4, peptide 100 μM) was “No significant change”, the “total amount of peptide remaining soluble (1H-NMR)” value ([1]; pH 7.4) was “about 40%” and the “change of intensity of aliphatic proton signals (1H-NMR)” value ([1]; pH 9.1, peptide 100 μM) was “decay of the proton signals followed by a plateau”. For the same molecule, the cellular internalization [2] was “poorly internalized”, the “dose from which anti-inflammatory and analgesic actions are supported” value [3] was at least 2.5 mg/kg and the “decrease of the size of xenografted triple negative breast tumors” value [4] was “about 50%”. The “formation of aggregates (ThT fluorescence)” value ([5]; pH 3.4 (0.2 M glycine HCl in water), peptide 10-100 μM, 40 h, ex 440/em 485 nm) was “No aggregation”, the “formation of aggregates (ThT fluorescence)” value ([5]; pH 7.4 (0.2 M KH2PO4/0.2 M K2HPO4 in water), peptide 50 and 100 μM, 40 h) was “exponential time-dependent increase of the formation of aggregates” and the “delay before formation of aggregates (ThT fluorescence)” value ([5]; pH 9.1 (0.2 M glycine NaOH in water), peptide 10 and 25 μM) was 18 h. The “formation of aggregates (ThT fluorescence)” value ([5]; pH 9.1 (0.2 M glycine NaOH in water), peptide 50 and 100 μM, 40 h) was “exponential time-dependent increase of the formation of aggregates”, the “aggregates seen by TEM” value ([6]; pH 3.4, peptide 100 μM, 48 h incubation) was “no aggregate was detected” and the “morphology of aggregates by TEM” value ([6]; pH 7.4, peptide 100 μM, 48 h incubation) was “granulations resembling to a dense network of prefibrillar amyloid oligomers”. The “morphology of aggregates by TEM” value ([6]; pH 9.1, peptide 100 μM) was “entanglement network of mature amyloid fibrils”, the “length of amyloid fibrils (TEM)” value ([6]; pH 9.1, peptide 100 μM, 48 h incubation) was over 1 μm and the “50% paw withdrawal threshold (PWT)” value ([7]; 1.25 mg/kg i.p., 45 min) was 0.141 ± 0.025 g. For the same molecule, the “50% paw withdrawal threshold (PWT)” value ([7]; 2.5 mg/kg i.p., 45 min) was 0.293 ± 0.055 g, the “calculated EC50 of anti-hyperalgesic action” value ([7]; from AUC (0-180 min) of PWT variations, i.p., CFA model, von Frey test) was 3.7 ± 1.9 mg/kg and the “effect on cell viability” value [8] was “inactive”. The “effect on cell viability” value [9] was “able to reduce the viability” and the Kd [10] was “micromolar range”.
For CN1CC[C@]23c4c5ccc(O)c4O[C@H]2[C@@H](O)C=C[C@H]3[C@H]1C5 [morphine, reference compound], the “50% paw withdrawal threshold (PWT)” value ([7]; 1 mg/kg, positive control, time not stated) was 0.672 ± 0.041 g.
For NSLALSLT [peptide 1], the “decrease of the soluble pool (CD)” value [11] was 70%, the “formation of aggregates (ThT fluorescence), fragments” value ([5]; pH 9.1 (glycine NaOH 0.2 M), peptide 100 μM, 40 h, ERα17p as reference) was “exponential increase of the fluorescence signal” and the “length of stacked fibrils (TEM)” value [6, 13] was 1.5 μm. For the same molecule, the “thickness of stacked fibrils (TEM)” value [6, 13] was 20 nm and the “solubility for biological assays” value [12] was “insufficiently soluble; also recorded: poor solubility”.
